# Assay results: patent US20260097137A1, “FLUORESCENT PROBE COMPOUNDS FOR TUMOR TARGETING IMAGING, AND SYNTHESIS METHOD THEREFOR” (HEBEI MEDICAL UNIVERSITY, priority 2023, published 2026)
# Columns and labels:
# FRα = target: T1, FRα (Homo sapiens, UniProt P15328); experiment: In vitro affinity assay of GT-NIR series probes by flow cytometry, KB cells; format: cell-based; conditions: 500 nM, 1 hour, order GT-NIR-5 > GT-NIR-4 > GT-NIR-1
# T1 construct: endogenous in cells; host or cells: KB cells
# Experimental: (§1) To compare the targeting affinity of different compounds in the GT-NIR series for folate receptors, FR^+ KB cells and M2 macrophages were seeded in 6-well plates at a density of 1×10^6 cells per well. After 24 hours of culture, the medium was replaced with folate-free fresh medium as a blank control. IR783 (500 nM) was added to exclude false-positive effects. Media containing GT-NIR series compounds (500 nM) were added to different wells and incubated for 1 hour. The cells were then digested with trypsin, washed three times with PBS (pH=7.4), and centrifuged (2000 rpm, 5 minutes) to remove unbound probes. The cells were resuspended in […] PBS, stored in light-protected BD Falcon tubes, and analyzed by flow cytometry. Statistical data were processed using FlowJo software (FIG. 6 and FIG. 7).
# FRβ = target: T2, FRβ (Homo sapiens, UniProt P14207); experiment: In vitro affinity assay of GT-NIR series probes by flow cytometry, M2 macrophages; format: cell-based; conditions: 500 nM, 1 hour, order GT-NIR-5 > GT-NIR-4 > GT-NIR-1
# T2 construct: endogenous in cells
# Experimental: as §1
# A549 cells = experiment: In vitro fluorescence microscopy assay, FR- A549 cells; format: cell-based; conditions: probe 1 μM, 30 minutes
# Experimental: (§2) To investigate the targeting capability of compound GT-NIR-1 toward folate receptor-expressing cells and its subcellular localization, FR^+ KB cells, FR^− A549 cells, FR^+ M2-type macrophages, and FR^− M1-type macrophages were seeded in confocal-specific culture dishes at a density of 3×10^5 cells per dish. The cells were cultured at 37° C. under 5% CO2 for 24 hours. Subsequently, the cells were incubated with GT-NIR-1 (1 μM) for 30 minutes. For competitive binding assays, KB cells and M2 macrophages were co-treated with a 100-fold excess of folic acid (100 μM) and GT-NIR-1 (1 μM) for 30 minutes. After incubation, all cells were washed three times with PBS (pH=7.4). Fluorescence was excited at 775 nm, and cellular fluorescence imaging was observed using confocal fluorescence microscopy (FIG. 4 and FIG. 5).
# FRβ (in M2 macrophages) = target: T3, FRβ (in M2 macrophages) (Homo sapiens, UniProt P14207); experiment: In vitro fluorescence microscopy assay, FR+ M2-type macrophages; format: cell-based; conditions: probe 1 μM, 30 minutes, excitation 775 nm
# T3 construct: endogenous in cells
# Experimental: as §2
# M1 macrophages = experiment: In vitro fluorescence microscopy assay, FR- M1-type macrophages; format: cell-based; conditions: probe 1 μM, 30 minutes
# Experimental: as §2
# FRα (in KB cells) = target: T4, FRα (in KB cells) (Homo sapiens, UniProt P15328); experiment: In vitro fluorescence microscopy assay, FR+ KB cells; format: cell-based; conditions: probe 1 μM, 30 minutes, excitation 775 nm
# T4 construct: endogenous in cells; host or cells: KB cells
# Experimental: as §2
# [1] = test system: tumors with high folate receptor expression; conditions: e.g., ovarian cancer, non-small cell lung cancer; background statement; cited from earlier work
# [2] = test system: FR-negative A549 xenograft; experiment: In vivo small animal imaging, FR-negative A549 cell xenografts; set-up: species or system mice; conditions: A549 xenograft negative control group, 10 nmol tail vein
# Experimental: (§3) Subcutaneous tumor models were established using FR^+ KB cell xenografts and FR A549 cell xenografts. The A549 xenograft model served as the negative control group, while a competition group was included to validate the in vivo targeting specificity of the probes toward tissues with high folate receptor expression. When tumor volumes reached 300-400 mm^3, the following treatments were administered via tail vein injection: • Blank control group: 100 μL saline; • Experimental groups: respective probes (10 nmol, dissolved in 100 μL saline); • Competition group: pre-injection of 100× excess folic acid ([…] in 100 μL saline) 15 minutes prior to probe administration (10 nmol in 100 μL saline).
# (§4) Whole-body fluorescence imaging was performed using an IVIS imaging system with 750-800 nm excitation light at 2, 4, 8, 12, 24, and 48 hours post-injection. At 8 hours after systemic imaging, the mice were euthanized, and organs were collected for ex vivo tissue biodistribution analysis using the IVIS system.
# [3] = test system: FR-positive KB xenografts; experiment: In vivo small animal imaging, FR+ KB cell xenografts; set-up: species or system mice; conditions: KB xenograft competition group, 100× excess folic acid
# Experimental: as §3, §4
# The in vivo imaging capability of the GT-IR series compounds was evaluated in the FR^+ KB cell xenograft model following the same experimental procedure. Imaging was performed at 8 hours post-injection using the IVIS system with 750-800 nm excitation light. After euthanasia, organs were collected and subjected to ex vivo biodistribution analysis.
# folate receptors = conditions: background statement; cited from earlier work
# T1 sequence (P15328 25-234): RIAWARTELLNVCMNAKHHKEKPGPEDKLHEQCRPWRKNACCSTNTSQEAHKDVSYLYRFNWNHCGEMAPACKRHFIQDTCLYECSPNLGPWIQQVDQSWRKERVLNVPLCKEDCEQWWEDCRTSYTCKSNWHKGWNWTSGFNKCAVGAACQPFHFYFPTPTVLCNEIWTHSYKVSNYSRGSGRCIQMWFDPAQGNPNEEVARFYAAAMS
# T4 sequence (P15328 25-234): as above
# T2 sequence (P14207 17-230, species assumed): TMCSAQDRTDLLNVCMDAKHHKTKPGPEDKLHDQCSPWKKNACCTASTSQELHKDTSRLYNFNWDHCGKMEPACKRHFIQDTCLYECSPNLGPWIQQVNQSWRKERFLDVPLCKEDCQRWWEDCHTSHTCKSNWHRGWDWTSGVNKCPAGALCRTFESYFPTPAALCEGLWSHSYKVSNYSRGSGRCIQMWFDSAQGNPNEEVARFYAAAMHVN
# T3 sequence (P14207 17-230, species assumed): as above
structure (smiles),measurement,setting,value
CC1(C)C(/C=C/C2=C(Oc3ccc(C[C@H](NC(=O)c4ccc(CCCCc5cc6c(=O)[nH]c(N)nc6[nH]5)s4)C(=O)O)cc3)C(=C/C=C3/N(CCCCS(=O)(=O)O)c4ccccc4C3(C)C)/CCC2)=[N+](CCCCS(=O)(=O)O)c2ccccc21 [GT-NIR-5],binding affinity for FRα (rank order within GT-NIR series),FRα,highest binding affinity
same,binding affinity for FRβ (rank order within GT-NIR series),FRβ,highest binding affinity
CC1(C)C(/C=C/C2=C(Oc3ccc(C[C@H](NC(=O)CNC(=O)Cc4cc5c(=O)[nH]c(N)nc5[nH]4)C(=O)O)cc3)C(=C/C=C3/N(CCCCS(=O)(=O)O)c4ccccc4C3(C)C)/CCC2)=[N+](CCCCS(=O)(=O)[O-])c2ccccc21 [GT-NIR-1],accumulation in folate receptor-negative cells,A549 cells,no accumulation was observed
same,cell entry / fluorescence imaging by confocal microscopy,FRβ (in M2 macrophages),successfully entered cells via targeting folate receptors
same,accumulation in folate receptor-negative cells,M1 macrophages,no accumulation was observed
same,cell entry / fluorescence imaging by confocal microscopy,FRα (in KB cells),successfully entered cells via targeting folate receptors
CC1(C)C(/C=C/C2=C(Oc3ccc(C[C@H](NC(=O)c4ccc(NCc5cnc6nc(N)[nH]c(=O)c6n5)cc4)C(=O)[O-])cc3)C(=C/C=C3\N(CCCCS(=O)(=O)[O-])c4ccc(S(=O)(=O)[O-])cc4C3(C)C)/CCC2)=[N+](CCCCS(=O)(=O)[O-])c2ccc(S(=O)(=O)[O-])cc21.[H+].[H+].[H+].[H+] [OTL38],tumor illumination and dye accumulation,[1],illuminates tumor tissue at significant depths
CC1(C)C(/C=C/C2=C(Oc3ccc(C[C@H](NC(=O)c4ccc(CCCCc5cc6c(=O)[nH]c(N)nc6[nH]5)cc4)C(=O)O)cc3)C(=C/C=C3/N(CCCCS(=O)(=O)O)c4ccccc4C3(C)C)/CCC2)=[N+](CCCCS(=O)(=O)[O-])c2ccccc21 [GT-NIR-4],clearance from the body,[2],rapidly cleared from the body
same,"targeted tumor imaging, whole-body fluorescence",[2],no targeted tumor imaging was observed
same,clearance from the body,[3],rapidly cleared from the body
same,"targeted tumor imaging, whole-body fluorescence",[3],no targeted tumor imaging was observed
Nc1nc2ncc(CNc3ccc(C(=O)N[C@@H](CCC(=O)O)C(=O)O)cc3)nc2c(=O)[nH]1 [folic acid],Kd,folate receptors,~1 nM
